Patent US20080200454A1, “CARBON-LINKED TETRAHYDRO-PYRAZOLO-PYRIDINE MODULATORS OF CATHEPSIN S” (priority 2007, published 2008)

Each compound was assayed against Recombinant human cathepsin S (CatS) (Homo sapiens, UniProt P25774) (assay: Recombinant human cathepsin S (CatS) inhibition assay, fluorogenic substrate Z-Valine-Valine-Arginine-AMC). Details: not given.
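Further: Baculovirus-expressed CatS in pH 5.0 sodium acetate buffer with DTT and NaCl, fluorescence read each minute over 20 min, inhibition derived from rate slope.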

Sequence of Recombinant human cathepsin S (CatS) (P25774 115-331): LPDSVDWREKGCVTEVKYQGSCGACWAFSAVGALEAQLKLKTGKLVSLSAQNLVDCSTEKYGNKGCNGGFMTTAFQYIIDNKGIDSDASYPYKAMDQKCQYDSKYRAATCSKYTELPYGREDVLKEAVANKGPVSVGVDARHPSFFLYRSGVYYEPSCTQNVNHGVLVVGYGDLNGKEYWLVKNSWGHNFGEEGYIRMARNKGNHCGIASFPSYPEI

IC50 | SMILES
210 nM | CS(=O)(=O)N1CCc2c(c(-c3ccc(Cl)c(C#Cc4ccc5c(c4)CC(CO)NC5)c3)nn2CCCN2CCOCC2)C1 (centres unmarked) [Example 206, [6-({2-Chloro-5-[5-(methylsulfonyl)-1-(3-morpholin-4-ylpropyl)-4,5,6,7-tetrahydro-1H-pyrazolo[4,3-c]pyridin-3-yl]phenyl}ethynyl)-1,2,3,4-tetrahydroisoquinolin-3-yl]methanol]
140 nM | CS(=O)(=O)N1CCc2c(c(-c3ccc(Cl)c(C#Cc4ccc5c(c4)CC(C(=O)N4CCOCC4)NC5)c3)nn2CCCN2CCOCC2)C1 (centres unmarked) [Example 483, 6-({2-Chloro-5-[5-(methylsulfonyl)-1-(3-morpholin-4-ylpropyl)-4,5,6,7-tetrahydro-1H-pyrazolo[4,3-c]pyridin-3-yl]phenyl}ethynyl)-3-(morpholin-4-ylcarbonyl)-1,2,3,4-tetrahydroisoquinoline]
2120 nM | CS(=O)(=O)N1CCc2c(c(-c3ccc(Cl)c(C#CCO)c3)nn2CCCN2CCC(N3CCCC3=O)CC2)C1 [Example 310, 1-[1-(3-{3-[4-Chloro-3-(3-hydroxyprop-1-yn-1-yl)phenyl]-5-(methylsulfonyl)-4,5,6,7-tetrahydro-1H-pyrazolo[4,3-c]pyridin-1-yl}propyl)piperidin-4-yl]pyrrolidin-2-one]
290 nM | CS(=O)(=O)N1CCc2c(c(-c3ccc(Cl)c(CCCNS(=O)(=O)c4ccccc4[N+](=O)[O-])c3)nn2CCCN2CCC(N3CCCC3=O)CC2)C1 [Example 89, N-{3-[2-Chloro-5-(5-methanesulfonyl-1-{3-[4-(2-oxo-pyrrolidin-1-yl)-piperidin-1-yl]-propyl}-4,5,6,7-tetrahydro-1H-pyrazolo[4,3-c]pyridin-3-yl)-phenyl]-propyl}-2-nitro-benzenesulfonamide]
3 nM | NC(=O)N1CCc2c(c(-c3ccc(Cl)c(C#Cc4ccc(Cl)cc4)c3)nn2C[C@@H](O)CN2CCC(C3CCNCC3)CC2)C1 [Example 238, 1-[(2S)-3-(4,4′-Bipiperidin-1-yl)-2-hydroxypropyl]-3-{4-chloro-3-[(4-chlorophenyl)ethynyl]phenyl}-1,4,6,7-tetrahydro-5H-pyrazolo[4,3-c]pyridine-5-carboxamide]
170 nM | CS(=O)(=O)N1CCc2c(c(-c3ccc(Cl)c(C#Cc4ccc(CNCc5ccc(Cl)cc5)cc4)c3)nn2CC(O)CN2CCCCC2)C1 (centres unmarked) [Example 361, 1-[3-(4-Chloro-3-{[4-({[(4-chlorophenyl)methyl]amino}methyl)phenyl]ethynyl}phenyl)-5-(methylsulfonyl)-4,5,6,7-tetrahydro-1H-pyrazolo[4,3-c]pyridin-1-yl]-3-piperidin-1-ylpropan-2-ol]
11500 nM | CS(=O)(=O)N1CCc2c(c(-c3ccc(Cl)c(CCCO)c3)nn2CCCN2CCOCC2)C1 [Example 302, 3-{2-Chloro-5-[5-(methylsulfonyl)-1-(3-morpholin-4-ylpropyl)-4,5,6,7-tetrahydro-1H-pyrazolo[4,3-c]pyridin-3-yl]phenyl}propan-1-ol]

Same assay, conditions: CatS IC50

SMILES | IC50
C[C@H]1COCCN1CCCn1nc(-c2ccc(Cl)c(C#Cc3ccc(CNCc4cccs4)cc3)c2)c2c1CCN(S(C)(=O)=O)C2 [Example 433, 1-[4-({2-Chloro-5-[1-{3-[(3S)-3-methylmorpholin-4-yl]propyl}-5-(methylsulfonyl)-4,5,6,7-tetrahydro-1H-pyrazolo[4,3-c]pyridin-3-yl]phenyl}ethynyl)phenyl]-N-(2-thienylmethyl)methanamine] | 240 nM
NC(=O)N1CCc2c(c(-c3ccc(Cl)c(C#Cc4ccc(CNCc5cccc(Cl)c5)cc4)c3)nn2CCCN2CCSCC2)C1 [Example 487, 3-(4-Chloro-3-{[4-({[(3-chlorophenyl)methyl]amino}methyl)phenyl]ethynyl}phenyl)-1-(3-thiomorpholin-4-ylpropyl)-1,4,6,7-tetrahydro-5H-pyrazolo[4,3-c]pyridine-5-carboxamide] | 60 nM
CS(=O)(=O)N1CCc2c(c(-c3ccc(Cl)c(C#Cc4ccc(CNC5CCCCC5)cc4)c3)nn2CCCN2CCOCC2)C1 [Example 326, N-{[4-({2-Chloro-5-[5-(methylsulfonyl)-1-(3-morpholin-4-ylpropyl)-4,5,6,7-tetrahydro-1H-pyrazolo[4,3-c]pyridin-3-yl]phenyl}ethynyl)phenyl]methyl}cyclohexanamine] | 1370 nM
NC(=O)N1CCc2c(c(-c3ccc(Cl)c(C#Cc4ccc(CNCc5ccc(N)cc5)cc4)c3)nn2CCCN2CCSCC2)C1 [Example 551, 3-(3-{[4-({[(4-Aminophenyl)methyl]amino}methyl)phenyl]ethynyl}-4-chlorophenyl)-1-(3-thiomorpholin-4-ylpropyl)-1,4,6,7-tetrahydro-5H-pyrazolo[4,3-c]pyridine-5-carboxamide] | 100 nM
CS(=O)(=O)N1CCc2c(c(-c3ccc(Cl)c(C#Cc4ccc(CN[C@@H]5Cc6ccccc6[C@@H]5O)cc4)c3)nn2CCCN2CCN(c3ccccn3)CC2)C1 [Example 213, (1S,2R)-2-[({4-[(2-Chloro-5-{5-(methylsulfonyl)-1-[3-(4-pyridin-2-ylpiperazin-1-yl)propyl]-4,5,6,7-tetrahydro-1H-pyrazolo[4,3-c]pyridin-3-yl}phenyl)ethynyl]phenyl}methyl)amino]-2,3-dihydro-1H-inden-1-ol] | 20 nM
C[C@H]1COCCN1CCCn1nc(-c2ccc(Cl)c(C#Cc3ccc(Cl)c(CNC4CCCC4)c3)c2)c2c1CCN(C(=O)C(N)=O)C2 [Example 269, (S)-2-{3-[4-Chloro-3-(4-chloro-3-cyclopentylaminomethyl-phenylethynyl)-phenyl]-1-[3-(3-methyl-morpholin-4-yl)-propyl]-1,4,6,7-tetrahydro-pyrazolo[4,3-c]pyridin-5-yl}-2-oxo-acetamide] | 10 nM
C[C@H]1COCCN1CCCn1nc(-c2ccc(Cl)c(C#Cc3ccc(CNCc4ccc(Cl)cc4)cc3)c2)c2c1CCN(C(=O)CO)C2 [Example 402, 2-[3-(4-Chloro-3-{[4-({[(4-chlorophenyl)methyl]amino}methyl)phenyl]ethynyl}phenyl)-1-{3-[(3S)-3-methylmorpholin-4-yl]propyl}-1,4,6,7-tetrahydro-5H-pyrazolo[4,3-c]pyridin-5-yl]-2-oxoethanol] | 150 nM
CS(=O)(=O)N1CCc2c(c(-c3ccc(Cl)c(C#Cc4cncc(CNCc5ccc(Cl)cc5)c4)c3)nn2CCCN2CCOCC2)C1 [Example 428, 1-[5-({2-Chloro-5-[5-(methylsulfonyl)-1-(3-morpholin-4-ylpropyl)-4,5,6,7-tetrahydro-1H-pyrazolo[4,3-c]pyridin-3-yl]phenyl}ethynyl)pyridin-3-yl]-N-[(4-chlorophenyl)methyl]methanamine] | 3750 nM

Same assay, conditions: CatS IC50, Table 2; average of results obtained

SMILES | IC50
CS(=O)(=O)N1CCc2c(c(-c3ccc(Cl)c(C#Cc4ccsc4)c3)nn2CCCN2CCOCC2)C1 [Example 23, 3-(4-Chloro-3-thiophen-3-ylethynyl-phenyl)-5-methanesulfonyl-1-(3-morpholin-4-yl-propyl)-4,5,6,7-tetrahydro-1H-pyrazolo[4,3-c]pyridine] | 1440 nM
CS(=O)(=O)N1CCc2c(c(-c3ccc(Cl)c(C#Cc4ccccc4C(F)(F)F)c3)nn2CCCN2CCOCC2)C1 [Example 34, 3-[4-Chloro-3-(2-trifluoromethyl-phenylethynyl)-phenyl]-5-methanesulfonyl-1-(3-morpholin-4-yl-propyl)-4,5,6,7-tetrahydro-1H-pyrazolo[4,3-c]pyridine] | 870 nM
